Results from PubChem BioAssay AID220 (DTP/NCI, 2004).
Where “and” joins values, the source holds several entries; their conditions need not be identical. Identical values can stand only once. Results filed as inconclusive are left out.

Test system: CD8F1 mice, subcutaneous mammary adenocarcinoma, T/C%
Assay: NCI In Vivo Anticancer Drug Screen. Data for tumor model Mammary Adenocarcinoma CD8F1 (subcutaneous) in CD8F1
Details: higher = larger tumour
Summary of the method: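 Antitumor activity is assessed in transplantable-tumor mice by comparing the treated group with a vehicle-treated control group. Survival or tumor size serves as the measure, reported as T divided by C.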

[1] = endpoint: median tumor weight (est.), dose: 12.5 mg/kg/injection, schedule: Q07DX005 (ip), vehicle: Klucel (hydroxypropylcellulose) (HPC)
[2] = endpoint: median tumor weight (est.), dose: 25.0 mg/kg/injection, schedule: Q07DX005 (ip), vehicle: Klucel (hydroxypropylcellulose) (HPC)
[3] = endpoint: median tumor weight (est.), dose: 50.0 mg/kg/injection, schedule: Q07DX005 (ip), vehicle: Klucel (hydroxypropylcellulose) (HPC)

CN1CCN(CN2C(=O)C3C4C=CC(C3C2=O)C2C3C(=O)N(CN5CCN(C)CC5)C(=O)C3C42)CC1 (stereo not given)
T/C (endpoint: median tumor weight change, dose: 21.6 mg/kg/injection, schedule: Q01DX005 (ip), vehicle: water): 98 % of control | T/C (endpoint: median tumor weight change, dose: 24.8 mg/kg/injection, schedule: Q01DX005 (ip), vehicle: water): 84 % of control | T/C (endpoint: median tumor weight change, dose: 36.0 mg/kg/injection, schedule: Q01DX005 (ip), vehicle: water): 70 % of control | T/C (endpoint: median tumor weight change, dose: 41.4 mg/kg/injection, schedule: Q01DX005 (ip), vehicle: water): 25 % of control | T/C (endpoint: median tumor weight change, dose: 60.0 mg/kg/injection, schedule: Q01DX005 (ip), vehicle: water): 54 % of control | T/C (endpoint: median tumor weight change, dose: 69.0 mg/kg/injection, schedule: Q01DX005 (ip), vehicle: water): 23 % of control | T/C (endpoint: median tumor weight change, dose: 100.0 mg/kg/injection, schedule: Q01DX005 (ip), vehicle: water): 21 % of control | T/C (endpoint: median tumor weight change, dose: 108.0 mg/kg/injection, schedule: Q01DX001 (ip), vehicle: water): 33 % of control | T/C (endpoint: median tumor weight change, dose: 123.9 mg/kg/injection, schedule: Q01DX001 (ip), vehicle: water): 33 % of control

CCCCCC[C@@H](O)C/C=C\CCCCCCCC(=O)OCCO
T/C (endpoint: median tumor weight change, dose: 125.0 mg/kg/injection, schedule: Q01DX001 (ip), vehicle: saline): 96 % of control | T/C (endpoint: median tumor weight change, dose: 250.0 mg/kg/injection, schedule: Q01DX001 (ip), vehicle: saline): 91 % of control | T/C (endpoint: median tumor weight change, dose: 500.0 mg/kg/injection, schedule: Q01DX001 (ip), vehicle: saline): 98 % of control | T/C (endpoint: median tumor weight change, dose: 1000.0 mg/kg/injection, schedule: Q01DX001 (ip), vehicle: saline): 103 % of control | T/C (endpoint: median tumor weight change, dose: 2000.0 mg/kg/injection, schedule: Q01DX001 (ip), vehicle: saline): 95 % of control

Nc1ccc2nc3ccc(N)cc3[n+](-c3ccccc3)c2c1
T/C (endpoint: median tumor weight (est.), dose: 6.25 mg/kg/injection, schedule: Q07DX005 (ip), vehicle: Klucel (hydroxypropylcellulose) (HPC)): 90 % of control | T/C (endpoint: median tumor weight (est.), dose: 6.25 mg/kg/injection, schedule: Q07DX005 (ip), vehicle: suspension in saline): 72 % of control | T/C [1]: 35 % of control | T/C (endpoint: median tumor weight (est.), dose: 12.5 mg/kg/injection, schedule: Q07DX005 (ip), vehicle: suspension in saline): 64 % of control | T/C [2]: 80 % of control | T/C (endpoint: median tumor weight (est.), dose: 25.0 mg/kg/injection, schedule: Q07DX005 (ip), vehicle: suspension in saline): 95 % of control | T/C [3]: 45 % of control

O=C1C=C2C(=CCOC2O)O1 (stereo not given)
T/C (endpoint: median tumor weight (est.), dose: 0.5 mg/kg/injection, schedule: Q07DX005 (ip), vehicle: Klucel (hydroxypropylcellulose) (HPC)): 36 % of control | T/C (endpoint: median tumor weight (est.), dose: 1.0 mg/kg/injection, schedule: Q07DX005 (ip), vehicle: Klucel (hydroxypropylcellulose) (HPC)): 25 % of control | T/C (endpoint: median tumor weight (est.), dose: 1.5 mg/kg/injection, schedule: Q07DX005 (ip), vehicle: saline): 153 % of control | T/C (endpoint: median tumor weight (est.), dose: 2.0 mg/kg/injection, schedule: Q07DX005 (ip), vehicle: Klucel (hydroxypropylcellulose) (HPC)): 25 % of control | T/C (endpoint: median tumor weight (est.), dose: 3.0 mg/kg/injection, schedule: Q07DX005 (ip), vehicle: saline): 87 % of control | T/C (endpoint: median tumor weight (est.), dose: 4.0 mg/kg/injection, schedule: Q07DX005 (ip), vehicle: Klucel (hydroxypropylcellulose) (HPC)): 50 % of control | T/C (endpoint: median tumor weight change, dose: 5.0 mg/kg/injection, schedule: Q01DX001 (ip), vehicle: Klucel (hydroxypropylcellulose) (HPC)): 98 % of control

CC[C@](O)(C(=O)O)c1cc2n(c(=O)c1CO)Cc1cc3ccccc3nc1-2
T/C (endpoint: mean tumor weight (est.), dose: 20.0 mg/kg/injection, schedule: Q07DX004 (ip), vehicle: saline): 70 % of control | T/C (endpoint: mean tumor weight (est.), dose: 40.0 mg/kg/injection, schedule: Q07DX004 (ip), vehicle: saline): 61 % of control | T/C (endpoint: mean tumor weight (est.), dose: 60.0 mg/kg/injection, schedule: Q07DX004 (ip), vehicle: saline): 48 % of control | T/C (endpoint: mean tumor weight, dose: 2.5 mg/kg/injection, schedule: Q01DX009 (ip), vehicle: saline): 55 % of control | T/C (endpoint: mean tumor weight, dose: 10.0 mg/kg/injection, schedule: Q07DX006 (ip), vehicle: saline): 13 % of control | T/C (endpoint: mean tumor weight, dose: 20.0 mg/kg/injection, schedule: Q07DX006 (ip), vehicle: saline): 36 % of control and 42 % of control | T/C (endpoint: mean tumor weight, dose: 20.0 mg/kg/injection, schedule: Q07DX007 (ip), vehicle: saline): 102 % of control | T/C (endpoint: mean tumor weight, dose: 40.0 mg/kg/injection, schedule: Q07DX006 (ip), vehicle: saline): 23 % of control | T/C (endpoint: mean tumor weight, dose: 40.0 mg/kg/injection, schedule: Q07DX007 (ip), vehicle: saline): 71 % of control | T/C (endpoint: mean tumor weight, dose: 60.0 mg/kg/injection, schedule: Q07DX006 (ip), vehicle: saline): 2 % of control | T/C (endpoint: mean tumor weight, dose: 80.0 mg/kg/injection, schedule: Q07DX007 (ip), vehicle: saline): 49 % of control | T/C (endpoint: median tumor weight (est.), dose: 6.25 mg/kg/injection, schedule: Q07DX005 (ip), vehicle: saline): 58 % of control | T/C (endpoint: median tumor weight (est.), dose: 12.5 mg/kg/injection, schedule: Q07DX005 (ip), vehicle: saline): 59 % of control | T/C (endpoint: median tumor weight (est.), dose: 25.0 mg/kg/injection, schedule: Q07DX005 (ip), vehicle: saline): 41 % of control

CN(C)c1ccc(C(=C2C=CC(=[N+](C)C)C=C2)c2ccc(N(C)C)cc2)cc1 (tested in a mixture with another compound)
T/C (endpoint: median tumor weight change, dose: 2.5 mg/kg/injection, schedule: Q01DX001 (ip), vehicle: saline with Tween-80): 75 % of control | T/C (endpoint: median tumor weight change, dose: 5.0 mg/kg/injection, schedule: Q01DX001 (ip), vehicle: saline with Tween-80): 77 % of control

CN(C1=NS(=O)(=O)N=C(N(C)c2ccccc2)O1)c1ccccc1
T/C [1]: 86 % of control | T/C [2]: 88 % of control | T/C [3]: 90 % of control | T/C (endpoint: median tumor weight (est.), dose: 100.0 mg/kg/injection, schedule: Q07DX005 (ip), vehicle: Klucel (hydroxypropylcellulose) (HPC)): 123 % of control and 115 % of control | T/C (endpoint: median tumor weight (est.), dose: 200.0 mg/kg/injection, schedule: Q07DX005 (ip), vehicle: Klucel (hydroxypropylcellulose) (HPC)): 86 % of control and 111 % of control | T/C (endpoint: median tumor weight (est.), dose: 800.0 mg/kg/injection, schedule: Q07DX005 (ip), vehicle: Klucel (hydroxypropylcellulose) (HPC)): 85 % of control | T/C (endpoint: median tumor weight change, dose: 50.0 mg/kg/injection, schedule: Q01DX001 (ip), vehicle: Klucel (hydroxypropylcellulose) (HPC)): 76 % of control | T/C (endpoint: median tumor weight change, dose: 100.0 mg/kg/injection, schedule: Q01DX001 (ip), vehicle: Klucel (hydroxypropylcellulose) (HPC)): 71 % of control and 75 % of control and 91 % of control | T/C (endpoint: median tumor weight change, dose: 800.0 mg/kg/injection, schedule: Q01DX001 (ip), vehicle: Klucel (hydroxypropylcellulose) (HPC)): 47 % of control and 64 % of control and 69 % of control | T/C (endpoint: median tumor weight change, dose: 1600.0 mg/kg/injection, schedule: Q01DX001 (ip), vehicle: Klucel (hydroxypropylcellulose) (HPC)): 70 % of control

O=C1C(=O)c2cccnc2-c2ncccc21
T/C (endpoint: median tumor weight change, dose: 1.56 mg/kg/injection, schedule: Q01DX001 (ip), vehicle: Klucel (hydroxypropylcellulose) (HPC)): 107 % of control | T/C (endpoint: median tumor weight change, dose: 3.12 mg/kg/injection, schedule: Q01DX001 (ip), vehicle: Klucel (hydroxypropylcellulose) (HPC)): 117 % of control

CS(=O)(=O)Nc1ccc(C(=O)CCN2CCCCCC2)cc1
T/C (endpoint: median tumor weight change, dose: 125.0 mg/kg/injection, schedule: Q01DX001 (ip), vehicle: suspension in saline): 157 % of control | T/C (endpoint: median tumor weight change, dose: 250.0 mg/kg/injection, schedule: Q01DX001 (ip), vehicle: suspension in saline): 166 % of control | T/C (endpoint: median tumor weight change, dose: 500.0 mg/kg/injection, schedule: Q01DX001 (ip), vehicle: suspension in saline): 92 % of control

COC1=C(NC(C)=O)C(=O)c2nc(-c3nc(C(=O)O)c(C)c(-c4ccc(OC)c(OC)c4O)c3N)ccc2C1=O
T/C (endpoint: median tumor weight change, dose: 12.5 mg/kg/injection, schedule: Q01DX001 (ip), vehicle: Klucel (hydroxypropylcellulose) (HPC)): 171 % of control
